Data reported in patent publication US9975881B2, “Compound” (ASTRAZENECA AB, priority 2011, dated 2018).

Target: T1, human CXCR2 (Homo sapiens, UniProt P25025)
T1 construct: expressed in transfected cells
T1 sequence (P25025 1-360): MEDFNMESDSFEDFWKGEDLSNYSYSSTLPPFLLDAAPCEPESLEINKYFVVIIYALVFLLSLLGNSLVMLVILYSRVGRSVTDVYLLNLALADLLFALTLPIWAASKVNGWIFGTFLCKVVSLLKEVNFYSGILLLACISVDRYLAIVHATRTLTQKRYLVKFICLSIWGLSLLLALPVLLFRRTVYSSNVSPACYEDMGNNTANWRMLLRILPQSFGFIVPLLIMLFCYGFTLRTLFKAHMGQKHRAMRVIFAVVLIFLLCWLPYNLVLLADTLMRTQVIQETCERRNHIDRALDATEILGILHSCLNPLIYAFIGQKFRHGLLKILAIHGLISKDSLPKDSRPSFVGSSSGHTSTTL
Test: Potency (pIC50) - ligand binding assay, Alexa647 IL-8 displacement from CXCR2 membranes
Settings: 50% reduction in specific Alexa647 IL-8 (1 nM) binding to HEK293 human CXCR2 membranes
Excerpt: Potency (pIC50)—Ligand Binding Assay
Human Embryonic Kidney 293 cells (HEK293 cells) from the American Type Culture Collection were transfected with human CXCR2 cDNA (RefSeqNM_001557), previously cloned into the eukaryotic expression vector pIRES-Neo2, (Clontech). Populations of Geneticin (Invitrogen)-resistant cells were selected for stable expression of CXCR2 and clones were generated by dilution cloning (0.3 cells/well) in 96-well tissue culture plates.
Cells of the highest expressing clone (Clone 6, identified by FACS analysis) were harvested, following 24 hour pre-treatment with 5 mM sodium butyrate, in 10 ml of ice-cold hypotonic buffer (20 mM HEPES, 1 mM EDTA, 0.1 mM DTT, 0.1 mM Phenyl Methyl Sulphonyl Fluoride and 0.1 mg/L Bacitracin, pH7.4) and left to swell for 10 min. Following centrifugation (200 g, 5 min, 4° C.), cells were resuspended in hypotonic buffer and membranes were prepared using a polytron tissue homogenizer (3×10 second treatments). […]
All assays were performed in black, 384-well plates (Greiner). […] Total binding of Alexa^647 IL-8 was determined in the absence of competing compound and non-specific binding of Alexa^647 IL-8 was determined in the presence of 0.3 μM 1-(4-chloro-2-hydroxy-3-sulfamoyl-phenyl)-3-(2,3-dichlorophenyl)urea. […]

**Q.** For CC1CN(S(=O)(=O)Nc2cc(O[C@H](C)[C@@H](O)CO)nc(SCc3ccc(F)cc3)n2)C1 [Example 1, N-(6-((2R,3S)-3,4-Dihydroxybutan-2-yloxy)-2-(4-fluorobenzylthio)pyrimidin-4-yl)-3-methylazetidine-1-sulfonamide], which IC50 is on record?
**A.** 3.98 nM
